Assay results: article PMC12114952, “Design, Synthesis, Anticancer Evaluation and Molecular Docking of Pyrimidine, Pyrido[4,3-d]pyrimidine and 5,6,7,8-Tetrahydropyrido[3,4-d]pyrimidine Derivatives as Novel KRAS-G12D Inhibitors and PROTACs” (Pharmaceuticals, 2025)
Like-named read-outs stand apart in the source and are kept apart here.

Legend:
[1] = tested on: tumor; parameters: method as in PMID 38197882; conditions: subcutaneous administration once a day for 22 days; cited from earlier work
[2] = tested on: AsPc-1; conditions: Figure 1, cited from earlier work
[3] = tested on: AGS; conditions: Figure 1; cited from earlier work
[4] = tested on: HCT116 (G13D); test: CCK-8 cell proliferation assay, HCT116 cells; type: cell-based; conditions: Homo sapiens, HCT-116, KRAS-G13D
Text: (§1) It has been reported that Panc1 is a KRAS-G12D-mutated human pancreatic cell and that A549 is a KRAS WT cell; meanwhile, HCT116 cells carry the KRAS-G13D mutation. Therefore, we used these cell lines to analyze the compounds’ anticancer activity and selectivity.

[5] = tested on: A549 (WT); test: CCK-8 cell proliferation assay, A549 cells; type: cell-based; conditions: Homo sapiens, KRAS wild-type
Text: as §1

[6] = tested on: Panc1 (G12D); test: CCK-8 cell proliferation assay, Panc1 cells; type: cell-based, human; conditions: for IC50: Homo sapiens, PANC-1, Panc1 cells, KRAS-G12D, CCK-8; for selectivity index (SI): Panc1 (G12D) over wild-type cells, fold
Text: as §1

[7] = tested on: AGS (G12D); test: CCK-8 cell proliferation assay, AGS cells; type: cell-based; conditions: Homo sapiens, KRAS-G12D, antiproliferative
Experimental: as §1
(§2) After we obtained 26a and 26b, cell proliferation experiments were conducted using cell lines carrying KRAS-G12D mutations, and the results are shown in Table 2. […] In the future, more types of linkers can be designed to adjust the lipophilic–hydrophilic balance coefficient of the molecule to optimize its membrane permeability and protein degradation ability. In addition, it should be acknowledged that only two cancer cell lines were selected for testing in this experiment, which is insufficient to comprehensively evaluate these PROTACs. This is also one of the limitations of this experiment.

[8] = biological target: KRAS-G12D (Homo sapiens, UniProt P01116, G12D); test: KRAS-G12D enzyme inhibition assay (GTPase activity assay)
[9] = tested on: ASPC-1; test: Cell proliferation assay, ASPC-1 cells; type: cell-based; conditions: Homo sapiens, ASPC1, KRAS-G12D, antiproliferative
Experimental: as §2

[10] = tested on: Panc-1; conditions: Figure 1; cited from earlier work
[11] = tested on: CT26; parameters: method as in PMID 35276423; conditions: Figure 1; cited from earlier work
[12] = tested on: Panc 04.03; conditions: Figure 1; cited from earlier work
[13] = tested on: KC; parameters: method as in PMID 35075146; conditions: Figure 1; cited from earlier work
[14] = KRAS-G12D inhibition IC50, enzymatic inhibition

Sequence of KRAS-G12D (P01116 1-188 isoform P01116-2 G12D): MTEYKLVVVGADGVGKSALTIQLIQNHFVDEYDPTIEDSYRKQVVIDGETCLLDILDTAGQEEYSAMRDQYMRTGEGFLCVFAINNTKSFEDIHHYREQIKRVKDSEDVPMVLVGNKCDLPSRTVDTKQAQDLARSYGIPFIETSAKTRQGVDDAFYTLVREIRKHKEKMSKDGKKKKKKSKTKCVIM

| Compound | IC50 [4] | IC50 [5] | IC50 [6] | further results |
| --- | --- | --- | --- | --- |
| CCc1c(F)ccc2cc(O)cc(-c3ncc4c(N5CC6CCC(C5)N6)nc(OC[C@@H]5CCCN5CCCCOCC(=O)N[C@H](C(=O)N5C[C@H](O)C[C@H]5C(=O)N[C@@H](C)c5ccc(-c6scnc6C)cc5)C(C)(C)C)nc4c3F)c12 [Compound 8o] | – | – | – | tumor inhibition rate [1]: 68.6%; IC50 [2]: 60 nM; IC50 [3]: 31 nM |
| CN1CCCN(c2nc3c(c(N4CC(N)C4)n2)CCN(C(=O)c2ccc(F)c4ccccc24)C3)CC1 [Compound 10a, (4-(3-Aminoazetidin-1-yl)-2-(4-methyl-1,4-diazepan-1-yl)-5,8-dihydropyrido[3,4-d]pyrimidin-7(6H)-yl)(4-fluoronaphthalen-1-yl)methanone] | 12.6 ± 1.01 µM | > 20 µM | 6.17 ± 0.2 µM | – |
| CN1CCCN(c2nc3c(c(N4CCNCC4)n2)CCN(C(=O)c2ccc(F)c4ccccc24)C3)CC1 [Compound 10b, (4-Fluoronaphthalen-1-yl)(2-(4-methyl-1,4-diazepan-1-yl)-4-(piperazin-1-yl)-5,8-dihydropyrido[3,4-d]pyrimidin-7(6H)-yl)methanone] | 11.2 ± 0.94 µM | 7.89 ± 0.17 µM | 5.87 ± 0.37 µM | – |
| CN1CCCN(c2nc3c(c(N4[C@@H]5CC[C@H]4CNC5)n2)CCN(C(=O)c2ccc(F)c4ccccc24)C3)CC1 [Compound 10c, (4-((1R,5S)-3,8-Diazabicyclo[3.2.1]octan-8-yl)-2-(4-methyl-1,4-diazepan-1-yl)-5,8-dihydropyrido[3,4-d]pyrimidin-7(6H)-yl)(4-fluoronaphthalen-1-yl)methanone] | 5.13 ± 0.4 µM | 6.88 ± 0.19 µM | 1.4 ± 0.19 µM | IC50 [7]: 3.4 ± 0.25 µM; IC50 [8, 14]: > 10000 nM; selectivity index (SI) [6]: 4.9 |
| CN1CCCN(c2nc3c(c(N4CCNCC4CO)n2)CCN(C(=O)c2ccc(F)c4ccccc24)C3)CC1 (centres unmarked) [Compound 10d, (4-Fluoronaphthalen-1-yl)(4-(2-(hydroxymethyl)piperazin-1-yl)-2-(4-methyl-1,4-diazepan-1-yl)-5,8-dihydropyrido[3,4-d]pyrimidin-7(6H)-yl)methanone] | > 20 µM | 7.48 ± 0.19 µM | > 20 µM | – |
| CN1CCCN(c2nc3c(c(N4CCNCC4(C)C)n2)CCN(C(=O)c2ccc(F)c4ccccc24)C3)CC1 [Compound 10e, (4-(2,2-Dimethylpiperazin-1-yl)-2-(4-methyl-1,4-diazepan-1-yl)-5,8-dihydropyrido[3,4-d]pyrimidin-7(6H)-yl)(4-fluoronaphthalen-1-yl)methanone] | 11.9 ± 1.59 µM | 12.8 ± 1.84 µM | > 20 µM | – |
| CN1CCCN(c2nc3c(c(N4CCCN(C)CC4)n2)CCN(C(=O)c2ccc(F)c4ccccc24)C3)CC1 [Compound 10f, (2,4-Bis(4-methyl-1,4-diazepan-1-yl)-5,8-dihydropyrido[3,4-d]pyrimidin-7(6H)-yl)(4-fluoronaphthalen-1-yl)methanone] | 10.1 ± 0.31 µM | > 20 µM | 3.48 ± 0.22 µM | selectivity index (SI) [6]: 5.7 |
| O=C(c1ccc(F)c2ccccc12)N1CCc2c(nc(N3CCN4CCC3CC4)nc2N2CCN3CCC2CC3)C1 [Compound 10g, (2,4-Di(1,4-diazabicyclo[3.2.2]nonan-4-yl)-5,8-dihydropyrido[3,4-d]pyrimidin-7(6H)-yl)(4-fluoronaphthalen-1-yl)methanone] | 7.12 ± 0.45 µM | 12.9 ± 0.38 µM | 5.1 ± 0.32 µM | – |
| CN1CCCN(c2nc3c(c(N4CCNCC4CO)n2)CCN(Cc2ccccc2)C3)CC1 (centres unmarked) [Compound 10h, (1-(7-Benzyl-2-(4-methyl-1,4-diazepan-1-yl)-5,6,7,8-tetrahydropyrido [3,4-d]pyrimidin-4-yl)piperazin-2-yl)methanol] | > 20 µM | > 20 µM | > 20 µM | – |
| Cc1cccc2cccc(N3CCc4c(nc(N5CCCN(C)CC5)nc4N4C[C@H]5CC[C@@H](C4)N5)C3)c12 [Compound 10i, 4-((1R,5S)-3,8-Diazabicyclo[3.2.1]octan-3-yl)-2-(4-methyl-1,4-diazepan-1-yl)-7-(8-methylnaphthalen-1-yl)-5,6,7,8-tetrahydropyrido[3,4-d]pyrimidine] | 4.51 ± 0.21 µM | 5.5 ± 1.35 µM | 3.92 ± 0.58 µM | – |
| CCN1CCC[C@H]1CNc1nc(NC(=O)c2cccc3ccccc23)cc(N2CCNCC2)n1 [Compound 10j, (S)-N-(2-(((1-Ethylpyrrolidin-2-yl)methyl)amino)-6-(piperazin-1-yl)pyrimidin-4-yl)-1-naphthamide] | 14.5 ± 1.22 µM | > 20 µM | 5.96 ± 0.64 µM | – |
| C#Cc1c(F)ccc2cc(O)cc(-c3ncc4c(N5C[C@H]6CC[C@@H](C5)N6)nc(N5CCCN(C)CC5)nc4c3F)c12 [Compound 10k, 4-(4-((1R,5S)-3,8-Diazabicyclo[3.2.1]octan-3-yl)-8-fluoro-2-(4-methyl-1,4-diazepan-1-yl)pyrido[4,3-d]pyrimidin-7-yl)-5-ethynyl-6-fluoronaphthalen-2-ol] | 7.87 ± 0.16 µM | 14.2 ± 2.15 µM | 11.5 ± 0.41 µM | IC50 [7]: 2.22 ± 0.53 µM; IC50 [8, 14]: 9 nM; IC50 ([8]; KRAS-G12D inhibitory activity IC50 (nM), Table S1): 9.3 nM |
| C#Cc1c(F)ccc2cc(O)cc(-c3ncc4c(N5C[C@H]6CC[C@@H](C5)N6)nc(N5CCCN(CCOCCNc6cccc7c6C(=O)N(C6CCC(=O)NC6=O)C7=O)CC5)nc4c3F)c12 (stereo partly drawn) [Compound 26a, 4-((2-(2-(4-(4-((1R,5S)-3,8-Diazabicyclo[3.2.1]octan-3-yl)-7-(8-ethynyl-7-fluoro-3-hydroxynaphthalen-1-yl)-8-fluoropyrido[4,3-d]pyrimidin-2-yl)-1,4-diazepan-1-yl)ethoxy)ethyl)amino)-2-(2,6-dioxopiperidin-3-yl)isoindoline-1,3-dione] | – | – | – | IC50 [7]: ~3 µM; IC50 [9]: > 10 µM |
| C#Cc1c(F)ccc2cc(O)cc(-c3ncc4c(N5C[C@H]6CC[C@@H](C5)N6)nc(N5CCCN(CCCCCC(=O)N[C@H](C(=O)N6C[C@H](O)C[C@H]6C(=O)N[C@@H](C)c6ccc(-c7scnc7C)cc6)C(C)(C)C)CC5)nc4c3F)c12 [Compound 26b, (2S,4R)-1-((S)-2-(6-(4-(4-((1R,5S)-3,8-Diazabicyclo[3.2.1]octan-3-yl)-7-(8-ethynyl-7-fluoro-3-hydroxynaphthalen-1-yl)-8-fluoropyrido[4,3-d]pyrimidin-2-yl)-1,4-diazepan-1-yl)hexanamido)-3,3-dimethylbutanoyl)-4-hydroxy-N-((S)-1-(4-(4-methylthiazol-5-yl)phenyl)ethyl)pyrrolidine-2-carboxamide] | – | – | – | IC50 [9]: 5.09 ± 0.89 µM |
| N#Cc1c(N)sc2c(F)ccc(-c3c(C(F)(F)F)cc4c(N5CC6CCC(C5)N6)nc(OC[C@@]56CCCN5C[C@H](F)C6)nc4c3F)c12 [ERAS-5024] | – | – | – | IC50 ([2]; 3D, CTG): 4 nM |
| COc1cccc(C(F)(F)F)c1-c1cc2c(N3CC4CCC(C3)N4)ncnc2s1 [KD-8] | – | – | – | IC50 [10]: 2300 nM; IC50 [11]: 2000 nM |
| C#Cc1c(F)ccc2cc(O)cc(-c3ncc4c(N5CC6CCC(C5)N6)nc(OC[C@@]56CCCN5C[C@H](F)C6)nc4c3F)c12 [MRTX1133, reference compound] | 12.6 ± 0.47 µM | 12.7 ± 0.98 µM | 0.39 ± 0.05 µM | tumor inhibition rate [1]: 89.1%; IC50 [7]: 1.46 ± 0.18 µM; IC50 [12]: 10 nM; IC50 [3]: 6 nM; IC50 [9]: < 0.1 µM |
| Cc1cccc2cccc(N3CCc4c(nc(OC[C@@H]5CCCN5C)nc4N4CC5CCC(C4)N5)C3)c12 [TH-Z835] | – | – | – | IC50 [10]: < 2000 nM; IC50 [13]: < 500 nM |
